Data on three molecules can be found in ChEMBL document CHEMBL6078613, “Cathepsin B: The dawn of tumor therapy” (Eur J Med Chem, 2024).

Assay [1] concerns the target T1, Cathepsin B (Homo sapiens, UniProt P07858). The experiment in a line: Inhibition of Cathepsin B (unknown origin) at 10 uM relative to control.
Assay [2] deals with T1, Cathepsin B. The experiment in a line: Inhibition of Cathepsin B (unknown origin).
A short description of assay [3]: Inhibition of Cathepsin B-like cysteine protease (unknown origin). Details: species or system Homo sapiens.

Where a SMILES comes first, the peptide text is derived from it. The star is where a group is joined. Cbz = O=C(OCc1ccccc1)*; CH2F = FC*

`CCOC(=O)[C@H]1O[C@@H]1C(=O)N[C@@H](CC(C)C)C(=O)NCCC(C)C`: the inhibition – broadly, how much of the control response was suppressed – against Cathepsin B [1] was 91%.

For the molecule `COC(=O)CC[C@H](NC(=O)[C@H](Cc1c[nH]c2ccccc12)NC(=O)OCc1ccccc1)C(=O)N[C@@H](Cc1cnc[nH]1)C(=O)N[C@@H](CC(=O)OC)C(=O)CF` (Cbz-WE(OMe)HD(OMe)-CH2F), the IC50 (usually the concentration at which inhibition is half-maximal) on Cathepsin B [2] amounted to 6 µM. This lies in the single-digit micromolar range.

As to `CC(C)C[C@H](NC(=O)[C@H]1O[C@@H]1C(=O)O)C(=O)NCCCCN=C(N)N` [E-64], the half-maximal inhibitory concentration (IC50) in assay [3] was 0.009 µM.
